Data on 20 compounds can be found in the supplement of paper PMC11061612.

Assay [1] deals with OCI-AML3 (Acute Myeloid Leukemia). Description: combination Emax (second highest fraction inhibited in the dose matrix, 72 h); higher = more inhibition; extreme values may be limits of the assay. In a few lines: (§1)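 Cell lines in DMEM/F12 or RPMI with 10% FBS were plated in 1536-well plates, held 24 hours at 37°C, 5% CO2, then given two-drug dose matrices for 72 hours (DMSO typically 0.2%). Viability was read by CellTiter-Glo 2.0 luminescence and scaled as inhibition from 0 (vehicle wells) to 1 (blank wells). Combination Emax is the second-highest inhibition in the matrix; Bliss excess is observed combination effect minus expected EA + EB − EA·EB, EA and EB being single-agent effects.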

For assay [2], the system named is ST486 (Burkitt's Lymphoma). Description: Bliss excess, mean over the matrix (fraction); higher = more synergy. In a few lines:
as §1

Assay [3] has as its system OCI-AML3 (Acute Myeloid Leukemia). The assay is described as above. In a few lines:
as §1

The test system of assay [4] is H9 (T-Cell Non-Hodgkin's Lymphoma). The description is as above. The method in brief: as §1
Assay [5] relates to BICR10 (Oral Cavity Carcinoma). The experiment in a line: combination Emax (second highest fraction inhibited in the dose matrix, 72 h); higher = more inhibition; extreme values may be limits of the assay. The method in brief: as §1
For assay [6], the system named is BICR10 (Oral Cavity Carcinoma). Description: Bliss excess, mean over the matrix (fraction); higher = more synergy. In a few lines: as §1

Molecules are shown by their SMILES.

In the case of `COc1nnc2ccc(N3CCC(c4ccc(OCCN5CCN(C)C(=O)[C@H]5C)cc4)CC3)nn12` [AZD5153] + CC1(C)CCC(CN2CCN(c3ccc(C(=O)NS(=O)(=O)c4ccc(NCC5CCOCC5)c([N+](=O)[O-])c4)c(Oc4cnc5[nH]ccc5c4)c3)CC2)=C(c2ccc(Cl)cc2)C1 [Venetoclax] (first compound max 1 µM, 7x7, partner max 1 µM), in assay [1], the “combination Emax” value was determined as 1. Also, the figures for the Bliss excess in assay [2], in assay [3] and in assay [4] were -0.0493, -0.052 and 0.0162, respectively.
`Cn1cnc2c(F)c(Nc3ccc(Br)cc3Cl)c(C(=O)NOCCO)cc21` [Selumetinib] + C=CCn1c(=O)c2cnc(Nc3ccc(N4CCN(C)CC4)cc3)nc2n1-c1cccc(C(C)(C)O)n1 [AZD1775] (first compound max 10 µM, partner max 1 µM): in assay [1], the “combination Emax” value is 0.94. The results for the Bliss excess in assay [2], in assay [3] and in assay [4] were 0.0165, -0.0213 and -0.0037, respectively.
With `COc1nnc2ccc(N3CCC(c4ccc(OCCN5CCN(C)C(=O)[C@H]5C)cc4)CC3)nn12` [AZD5153] + C=CCn1c(=O)c2cnc(Nc3ccc(N4CCN(C)CC4)cc3)nc2n1-c1cccc(C(C)(C)O)n1 [AZD1775] (first compound max 1 µM, partner max 1 µM), the “combination Emax” value in assay [1] was determined as 1. For the same compound, the results for the Bliss excess in assay [2], in assay [3] and in assay [4] were -0.0492, -0.012 and -0.0271, respectively.
As to `C=CCn1c(=O)c2cnc(Nc3ccc(N4CCN(C)CC4)cc3)nc2n1-c1cccc(C(C)(C)O)n1` [AZD1775] + C1CN(CCC1(C(=O)N[C@@H](CCO)C2=CC=C(C=C2)Cl)N)C3=NC=NC4=C3C=CN4 [Capivasertib] (first compound max 3 µM, partner max 3 µM), the “combination Emax” value in assay [1] amounted to 0.914; in assay [5], 0.829. Further, the Bliss excess in assay [2] was 0.0215; in assay [3], 0.0051; in assay [6] it was -0.0418; in assay [4], -0.0311.
Take `CC(=O)c1c(C)c2cnc(Nc3ccc(N4CCNCC4)cn3)nc2n(C2CCCC2)c1=O` [Palbociclib] + CC1(C)CCC(CN2CCN(c3ccc(C(=O)NS(=O)(=O)c4ccc(NCC5CCOCC5)c([N+](=O)[O-])c4)c(Oc4cnc5[nH]ccc5c4)c3)CC2)=C(c2ccc(Cl)cc2)C1 [Venetoclax] (first compound max 10 µM, 7x7, partner max 1 µM): in assay [1], the “combination Emax” value was 0.585. Moreover, the Bliss excess was -0.0755 in assay [2], -0.0679 in assay [3] and -0.0394 in assay [4].
Regarding `CS(=O)(=O)CCNCc1ccc(-c2ccc3ncnc(Nc4ccc(OCc5cccc(F)c5)c(Cl)c4)c3c2)o1` [Lapatinib] + C[C@@H](Oc1cc(-c2cnn(C3CCNCC3)c2)cnc1N)c1c(Cl)ccc(F)c1Cl [Crizotinib] (first compound max 10 µM, 7x7, partner max 10 µM), in assay [1], the “combination Emax” value turned out to be 0.846. The figures for the Bliss excess in assay [2], in assay [3] and in assay [4] were -0.0366, -0.0235 and -0.0249, respectively.
For `COc1cc2ncnc(Nc3ccc(F)c(Cl)c3)c2cc1OCCCN1CCOCC1` [Gefitinib] + CC(C)n1c(=O)n(C)c2cnc3cc(F)c(-c4ccc(OCCCN5CCCCC5)nc4)cc3c21 [AZD1390] (first compound max 10 µM, 7x7, partner max 0.3 µM), in that order: 0.059, -0.0874, -0.0457 and -0.0723.
For `CC(=O)c1c(C)c2cnc(Nc3ccc(N4CCNCC4)cn3)nc2n(C2CCCC2)c1=O` [Palbociclib] + Cc1c2c(nn1C)CSCc1cc(n(C)n1)CSc1cc(c3ccccc3c1)OCCCc1c(C(=O)O)n(C)c3c-2c(Cl)ccc13 [AZD5991] (first compound max 10 µM, 7x7, partner max 1 µM), the “combination Emax” value in assay [1] is 1. Also, the values for the Bliss excess in assay [2], in assay [3] and in assay [4] were -0.0457, 0.0376 and -0.0795, respectively.
`Cn1cnc2c(F)c(Nc3ccc(Br)cc3Cl)c(C(=O)NOCCO)cc21` [Selumetinib] + CC(C)n1c(=O)n(C)c2cnc3cc(F)c(-c4ccc(OCCCN5CCCCC5)nc4)cc3c21 [AZD1390] (first compound max 10 µM, 7x7, partner max 0.3 µM): the “combination Emax” value in assay [1] was found to be 0.909. The Bliss excess in assay [2] was -0.0391; in assay [3], -0.0696; in assay [4], -0.0033.
For `Cc1nc(Nc2ncc(C(=O)Nc3c(C)cccc3Cl)s2)cc(N2CCN(CCO)CC2)n1` [Dasatinib] + CC(=O)Nc1cccc(-n2c(=O)n(C3CC3)c(=O)c3c(Nc4ccc(I)cc4F)n(C)c(=O)c(C)c32)c1 [Trametinib] (first compound max 2 µM, 7x7, partner max 1 µM), in that order: 0.942, -0.0987, -0.0745 and -0.193.
For `NC1(C(=O)N[C@@H](CCO)c2ccc(Cl)cc2)CCN(c2ncnc3[nH]ccc23)CC1` [Capivasertib] + CC(C)n1c(=O)n(C)c2cnc3cc(F)c(-c4ccc(OCCCN5CCCCC5)nc4)cc3c21 [AZD1390] (first compound max 10 µM, 7x7, partner max 0.3 µM), in that order: 0.37, -0.0363, -0.11 and -0.0341.
Regarding `NC1(C(=O)N[C@@H](CCO)c2ccc(Cl)cc2)CCN(c2ncnc3[nH]ccc23)CC1` [Capivasertib] + C[C@@H]1COCCN1C2=NC(=NC(=C2)C3(CC3)[S@](=N)(=O)C)C4=C5C=CNC5=NC=C4 [AZD6738] (first compound max 10 µM, 7x7, partner max 10 µM), the “combination Emax” value in assay [1] was determined as 0.891. The Bliss excess in assay [2] is -0.0785; in assay [3], -0.0224; in assay [4], 0.0057.
The corresponding values for `NC1(C(=O)N[C@@H](CCO)c2ccc(Cl)cc2)CCN(c2ncnc3[nH]ccc23)CC1` [Capivasertib] + Cn1cnc2c(F)c(Nc3ccc(Br)cc3Cl)c(C(=O)NOCCO)cc21 [Selumetinib] (first compound max 10 µM, 7x7, partner max 10 µM) are 0.918, 0.0217, -0.0291 and 0.0271.
For `NC1(C(=O)N[C@@H](CCO)c2ccc(Cl)cc2)CCN(c2ncnc3[nH]ccc23)CC1` [Capivasertib] + CCN(CCO)CCCOc1ccc2c(Nc3cc(CC(=O)Nc4cccc(F)c4)[nH]n3)ncnc2c1 [AZD2811] (first compound max 10 µM, 7x7, partner max 1 µM), in that order: 0.585, -0.0396, -0.095 and -0.0361.
For `Cn1cnc2c(F)c(Nc3ccc(Br)cc3Cl)c(C(=O)NOCCO)cc21` [Selumetinib] + CCN(CCO)CCCOc1ccc2c(Nc3cc(CC(=O)Nc4cccc(F)c4)[nH]n3)ncnc2c1 [AZD2811] (first compound max 10 µM, 7x7, partner max 1 µM), in that order: 0.949, 0.0872, 0.0086 and -0.0129.
`COc1nnc2ccc(N3CCC(c4ccc(OCCN5CCN(C)C(=O)[C@H]5C)cc4)CC3)nn12` [AZD5153] + CCN(CCO)CCCOc1ccc2c(Nc3cc(CC(=O)Nc4cccc(F)c4)[nH]n3)ncnc2c1 [AZD2811] (first compound max 1 µM, 7x7, partner max 1 µM): in assay [1], the “combination Emax” value stood at 1. Moreover, the figures for the Bliss excess in assay [2], in assay [3] and in assay [4] were -0.0647, 0.05 and -0.0163, respectively.
The corresponding values for `C[C@@H](c1ccc2nccn2c1)n1nnc2ncc(-c3cnn(C)c3)nc21` [Savolitinib] + CC1(C)CCC(CN2CCN(c3ccc(C(=O)NS(=O)(=O)c4ccc(NCC5CCOCC5)c([N+](=O)[O-])c4)c(Oc4cnc5[nH]ccc5c4)c3)CC2)=C(c2ccc(Cl)cc2)C1 [Venetoclax] (first compound max 1 µM, 7x7, partner max 1 µM) are 0.154, -0.0481, -0.0358 and -0.0453.
In the case of `COc1nnc2ccc(N3CCC(c4ccc(OCCN5CCN(C)C(=O)[C@H]5C)cc4)CC3)nn12` [AZD5153] + C[C@@H]1COCCN1C2=NC(=NC(=C2)C3(CC3)[S@](=N)(=O)C)C4=C5C=CNC5=NC=C4 [AZD6738] (first compound max 1 µM, 7x7, partner max 10 µM), in assay [1], the “combination Emax” value worked out at 1. The Bliss excess in assay [2] was -0.0692; in assay [3] it was -0.0454; in assay [4], -0.0108.
As to `CN(C)CCCOc1ccc(-c2ccc3ncc4c(c3c2)n(C2CCOCC2)c(=O)n4C)cn1` [AZD0156] + O=C(c1cc(Cc2n[nH]c(=O)c3ccccc23)ccc1F)N1CCN(C(=O)C2CC2)CC1 [Olaparib] (first compound max 3 µM, partner max 3 µM), the “combination Emax” value in assay [1] worked out at 0.392; in assay [5] it was 0.348. The Bliss excess in assay [2] was determined as 0.24; in assay [3], 0.128; in assay [6], 0.0275; in assay [4] it was 0.0284.
With `CC(=O)c1c(C)c2cnc(Nc3ccc(N4CCNCC4)cn3)nc2n(C2CCCC2)c1=O` [Palbociclib] + Cn1cnc2c(F)c(Nc3ccc(Br)cc3Cl)c(C(=O)NOCCO)cc21 [Selumetinib] (first compound max 10 µM, 7x7, partner max 10 µM), the “combination Emax” value in assay [1] worked out at 0.935. The Bliss excess in assay [2] was 0.151; in assay [3], 0.0289; in assay [4], -0.0868.
